Assay results as given in patent US20110052697A1, “Aptamer-Directed Drug Delivery” (GWANGJU INSTITUTE OF SCIENCE & TECHNOLOGY, priority 2006, published 2011).
≈ marks a conversion by molar mass, not a printed value. Entries after “also recorded” stand apart in the source; their conditions may differ.

Key:
[1] = cited from earlier work
PC3 (PSMA−) cells = assay: Cell uptake by confocal laser scanning microscopy, PC3; type: cell-based; conditions: 1.5 μM Dox, 2 hours
Protocol: (§1) Prostrate cancer cell lines LNCaP(PSMA+) and PC3 (PSMA−) (5*10^3 cells/mL) were grown in chamber slides in RPMI 1640 media with 10% fetal bovine serum for 24 hours to attain 70% confluence. Before incubation with complex, cells were pre-incubated with OPTIMEM media for 30 minutes, followed by incubation with physical complex of 1.0:1.1 molar ratio of Dox:aptamer with a doxorubicin concentration of 1.5 μM for 2 hours, the cells were washed with PBS twice, fixed with 3.5% HCHO for 10 minutes, washed, mounted with Vector mounting media and cover slipped. Fluorescence images were obtained (Carl Zeiss LSM 510, Ar laser 488, long pass filter 560,63× water lens.)

LNCaP cells [2] = assay: Flow cytometry of cellular uptake, LNCaP; type: cell-based; conditions: LNCaP compared to PC3; 1.5 μM
Protocol: (§2) Cellular uptake of the complex was confirmed using flow cytometry (EPICS XL Flow cytometry systems, Beckman Coulter, Inc). Briefly, 5×10^4 cells were seeded onto 12 well plates (n=4) for 24 hours followed by incubation for 2 hours with the complex solution (1.0:1.1 mole ratio of Dox:aptamer) such that final Dox concentration was 1.5 μM. Cells were washed with PBS twice, trypsinized, centrifuged at 1000 rpm for 3 minutes and resuspended in PBS for FACS analysis. Data were processed with EXPO 32 software.

PC3 cells [3] = conditions: MTT, QD 100 nM, Dox 5 μM
Protocol: (§3) The prostate LNCaP and PC3 cell lines were grown in 24-well plates in RPMI-1640 and Ham's F-12K medium, respectively, both supplemented with 100 units/ml aqueous penicillin G, 100 μg/ml streptomycin, and 10% FBS (fetal bovine serum) at concentrations to allow 70% confluence in 24 hours (i.e., 40,000 cells/cm^2). […] Cells were incubated with the conjugates for 3 hours at 37° C., washed two times with PBS (1 ml per well), and incubated in fresh growth media for a total of 72 hours. Cell viability was assessed colorimetrically with the MTT reagent (ATCC) following the standard protocol provided by the manufacturer. The absorbance was read with a microplate reader at 570 nm.

LNCaP cells [4] = conditions: MTT, QD 100 nM, Dox 5 μM
Protocol: as §3

LNCaP(PSMA+) cells = assay: Cell uptake by confocal laser scanning microscopy, LNCaP; type: cell-based; conditions: 1.5 μM Dox, 2 hours
Protocol: as §1

A10 PSMA aptamer = assay: Fluorescence quenching titration of Dox with the A10 PSMA aptamer (Hill plot); type: binding; conditions: FIG. 2 inset
Protocol: A complex comprising the A10 PSMA aptamer (RNA-Tec, Belgium) and doxorubicin (Dox) was generated through the stepwise addition of increasing molar ratio of aptamer to a fixed concentration of doxorubicin (3 μM) in the presence of 0.1 M sodium acetate, 0.05 M sodium chloride, and 0.01 M magnesium chloride. The fluorescence of Dox was measured at 35 minutes by exciting the solution at 480 nm and recording the emission in the interval of 500 nm-720 nm (1.5 mm slit) on a Shimadzu RF-PC100 spectrofluorophotometer.

PC3 cells [5] = assay: Flow cytometry of cellular uptake, PC3; type: cell-based; conditions: PC3 compared to LNCaP; 1.5 μM
Protocol: as §2

PC3 cells [6] = conditions: cited from earlier work
LNCaP cells [7] = conditions: cited from earlier work

CC(=O)O[C@@]12CO[C@@H]1C[C@H](O)[C@@]1(C)C(=O)[C@H](O)C3=C(C)[C@@H](OC(=O)[C@H](O)[C@@H](NC(=O)OC(C)(C)C)c4ccccc4)C[C@@](O)([C@@H](OC(=O)c4ccccc4)[C@H]21)C3(C)C [Dtxl, docetaxel]
water solubility [1]: 0.025 µg/mL (≈ 0.0309 µM)

COc1cccc2c1C(=O)c1c(O)c3c(c(O)c1C2=O)C[C@@](O)(C(=O)CO)C[C@@H]3O[C@H]1C[C@H](N)[C@H](O)[C@H](C)O1 [free Dox, doxorubicin]
uptake / staining by confocal microscopy (PC3 (PSMA−) cells): readily diffuses through the plasma membrane
staining by flow cytometry (LNCaP cells [2]): near-identical staining
cytotoxicity (PC3 cells [3]): equipotent
cytotoxicity (LNCaP cells [4]): equipotent
uptake / staining by confocal microscopy (LNCaP(PSMA+) cells): readily diffuses through the plasma membrane; also recorded: almost exclusively stains nuclei
Kd expressed as equiv of the aptamer (A10 PSMA aptamer): 0.52 equiv
staining by flow cytometry (PC3 cells [5]): near-identical staining

B1: free aptamer: A10 RNA aptamer that binds to the PSMA protein on the surface of prostate cancer cells (Lupold et al., 2002) (nucleic acid)
chain: GGGAGGACGAUGCGGAUCAGCCAUGUUUACGUCACUCCUUGUCAAUCCUCAUCGGCAGACGACUCGCCCGA
modifications: chemistry not given here
cytotoxicity, previously reported (PC3 cells [6]): no cytotoxicity
cytotoxicity, previously reported (LNCaP cells [7]): no cytotoxicity
